Test results from patent US20170096636A1, “METHODS AND COMPOUNDS FOR PHOTOTHERAPY WITH CHALCOGENORHODAMINE PHOTOSENSITIZERS” (Wake Forest University Health Sciences, priority 2014, published 2017).
Values joined by “and” are separate entries in the source; they are usually repeats but may differ in a detail not shown here. Equal values may be shown once. Read-outs that look alike come from different tables or passages of the source.

Columns and labels:
[1] = Quantum yield for generation of singlet oxygen, time-resolved 1O2 phosphorescence; format: physicochemical; settings: air-saturated MeOH, TMR-Se as reference
[2] = Fluorescence quantum yield in MeOH; format: physicochemical; settings: for ΦF, MeOH: quantum yield for fluorescence in MeOH; for ΦF of sulfur analogue relative to selenium analogue: MeOH
HUT-78 cells = assay: Cellular uptake and extrusion of photosensitizer (flow cytometry MFI); format: cell-based; settings: ±SE; for Uptake MFI: 2.5 × 10^−7 M photosensitizer, 20 minutes exposure; for % Extrusion: percent change in MFI after 18 hour extrusion period, 2.5 × 10^−7 M
Description: Cellular Uptake and Extrusion of Chalcogenorhodamine Photosensitizers. […] Cellular uptake of the chalcogenorhodamine photosensitizers was measured after a 20 minute exposure to 2.5×10^−7 M photosensitizer in malignant T cells (HUT-78 cells, Table 2). Transmembrane movement of the photosensitizers in the secretory direction (basolateral to apical) was measured after an 18-h extrusion period. As described above, the Se-containing molecules fluoresced at a lower intensity relative to the S-containing molecules. […] Overall, the PF6^− salts were more slowly extruded from cells relative to the chloride salts of the amide, with a greater difference in the extrusion kinetics noted between the thiorhodamine PF6 salts compared to the selenorhodamine chloride salts.

P-gp = P-gp (Homo sapiens, UniProt P08183); settings: cited from earlier work
[3] = test system: immunomagnetically-selected CD3+ cells; assay: Phototoxicity: cell survival by FACS (Annexin 5/7AAD) 18 hours after PD; format: cell-based; settings: 5.0×10^−8 M, 5 J/cm^2 light, FACS 18 hours after PD
Text: (§1) Selective phototoxicity of Chalcogenorhodamine Photosensitizers. Based on the rapid extrusion kinetics and low potential for toxicity in resting cells, we selected four amide-containing half-julolidine analogues for further analysis (2-S—Cl, 2-Se—Cl, 4-S—Cl, and 4-Se—Cl). These photosensitizers are associated with high singlet oxygen quantum yields (Table I). As a result, very low concentrations of these agents are required for phototherapy. For all PD experiments, immunomagnetically-selected CD3^+ cells were suspended in a photosensitizer-rich media of 5.0×10^−8 M for 20 minutes followed by 30 minutes in a photosensitizer-free media. Cells were then exposed to 5 J/cm^2 of light followed by real-time measurement of OCR and ECAR. […] We next evaluated the effects of PD on cell survival. For these experiments, FACS analysis was performed 18 hours after PD. Cell survival was identified by failure to bind Annexin 5 and 7AAD, and percent survival was calculated as the difference in the absolute number of cells between PD and control (non-PD samples) samples.

[4] = test system: immunomagnetically-selected CD3+ cells; assay: Phototoxicity: photodepletion (PD) of CD3+ cells, real-time OCR; format: cell-based; settings: 5.0×10^−8 M 20 minutes, 30 minutes photosensitizer-free, 5 J/cm^2 light
Text: as §1

resting T cells = assay: Dark toxicity: bioenergetics (O2 consumption rate) of resting T cells; settings: 5.0×10^−7 M
cytochrome c oxidase = settings: whole cells, irradiation; cited from earlier work
[5] = n-octanol / PBS pH 7.4, shake flask

P-gp, sequence (P08183 whole entry): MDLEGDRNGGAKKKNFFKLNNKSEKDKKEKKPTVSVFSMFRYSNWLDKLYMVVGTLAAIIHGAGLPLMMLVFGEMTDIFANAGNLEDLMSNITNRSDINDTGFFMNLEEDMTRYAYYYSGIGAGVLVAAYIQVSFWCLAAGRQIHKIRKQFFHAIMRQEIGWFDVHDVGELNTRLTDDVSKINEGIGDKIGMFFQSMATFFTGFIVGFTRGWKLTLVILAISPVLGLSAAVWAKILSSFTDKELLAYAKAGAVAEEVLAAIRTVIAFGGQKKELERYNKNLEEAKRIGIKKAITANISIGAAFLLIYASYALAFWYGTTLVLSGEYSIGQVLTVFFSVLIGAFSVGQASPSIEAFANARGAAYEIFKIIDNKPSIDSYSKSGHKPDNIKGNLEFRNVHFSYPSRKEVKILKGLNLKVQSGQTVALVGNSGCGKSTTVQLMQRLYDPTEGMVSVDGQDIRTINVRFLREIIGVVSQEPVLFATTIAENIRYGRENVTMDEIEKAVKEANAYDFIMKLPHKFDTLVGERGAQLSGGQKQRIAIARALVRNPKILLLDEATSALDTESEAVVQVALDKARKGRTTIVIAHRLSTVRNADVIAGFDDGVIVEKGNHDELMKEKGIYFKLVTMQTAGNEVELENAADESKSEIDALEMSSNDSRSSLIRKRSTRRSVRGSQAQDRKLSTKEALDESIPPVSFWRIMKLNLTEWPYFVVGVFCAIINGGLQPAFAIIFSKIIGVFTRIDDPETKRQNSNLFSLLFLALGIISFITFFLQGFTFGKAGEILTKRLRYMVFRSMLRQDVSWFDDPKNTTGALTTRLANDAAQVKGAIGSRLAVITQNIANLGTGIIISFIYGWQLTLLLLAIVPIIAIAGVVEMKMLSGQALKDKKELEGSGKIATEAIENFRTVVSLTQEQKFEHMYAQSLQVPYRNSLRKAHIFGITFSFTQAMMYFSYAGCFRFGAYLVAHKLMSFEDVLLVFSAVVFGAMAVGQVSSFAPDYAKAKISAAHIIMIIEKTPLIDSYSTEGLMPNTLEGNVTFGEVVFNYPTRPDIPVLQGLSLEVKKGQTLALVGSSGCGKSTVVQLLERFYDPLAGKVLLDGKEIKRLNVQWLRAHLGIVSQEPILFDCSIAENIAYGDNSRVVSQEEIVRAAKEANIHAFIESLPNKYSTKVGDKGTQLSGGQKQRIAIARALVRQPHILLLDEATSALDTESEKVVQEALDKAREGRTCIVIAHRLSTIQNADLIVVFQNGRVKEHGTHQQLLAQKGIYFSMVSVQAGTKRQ

| Φ(^1O2), MeOH [1] | log P (pH 7.4) | ΦF of sulfur analogue relative to selenium analogue [2] | Structure (SMILES) | ΦF, MeOH [2] | Uptake MFI (HUT-78 cells) | % Extrusion (HUT-78 cells) | log P [5] | effect on ATPase activity in P-gp (P-gp) | cell death after PD [3] | effect of PD on basal OCR [4] | dark toxicity (resting T cells) | cytochrome c oxidase activity in irradiated treated cells (cytochrome c oxidase) |
| --- | --- | --- | --- | --- | --- | --- | --- | --- | --- | --- | --- | --- |
| – | – | – | CN1CCC(C)(C)c2cc3c(-c4ccc(C(=S)N5CCCCC5)s4)c4ccc(=[N+](C)C)cc-4sc3cc21.[Cl-] [1-S—Cl] | 0.07 ± 0.01 | 30070 (±2481) | 84.97 (±2.87) % | 1.92 ± 0.08 | – | – | – | – | – |
| – | – | – | CN1CCC(C)(C)c2cc3c(-c4ccc(C(=S)N5CCCCC5)s4)c4ccc(=[N+](C)C)cc-4sc3cc21.F[P-](F)(F)(F)(F)F [1-S—PF6] | 0.07 ± 0.01 | 30229 (±1124) | 84.16 (±3.00) % | 1.2 | inhibit ATPase activity | – | – | – | – |
| – | – | – | CN1CCC(C)(C)c2cc3c(-c4ccc(C(=O)N5CCCCC5)s4)c4ccc(=[N+](C)C)cc-4sc3cc21.[Cl-] [2-S—Cl] | 0.09 ± 0.01 | 50993 | 92.70 (±0.74) % | 2.26 ± 0.04 | – | Significant cell death | – | – | – |
| – | – | – | CN1CCC(C)(C)c2cc3c(-c4ccc(C(=O)N5CCCCC5)s4)c4ccc(=[N+](C)C)cc-4sc3cc21.F[P-](F)(F)(F)(F)F [2-S—PF6] | 0.09 ± 0.01 | 71978 | 91.79 (±1.16) % | 1.2 | stimulate ATPase activity | – | – | – | – |
| 0.54±0.03 | 2.41 ± 0.04 | – | CCN(CC)C(=S)c1ccc(-c2c3ccc(=[N+](C)C)cc-3[se]c3cc4c(cc23)C(C)(C)CCN4C)s1.[Cl-] [3-Se—Cl, N-(6-(5-(diethylcarbamothioyl)thiophen-2-yl)-1,4,4-trimethyl-3,4-dihydro-1H-seleno-chromeno[3,2-g]quinolin-9(2H)-ylidene)-N-methylmethanaminium Chloride] | 0.008 ± 0.002 | 5480 (±666) | 88.65 (±1.21) % | – | – | – | – | – | – |
| – | – | – | CCN(CC)C(=S)c1ccc(-c2c3ccc(=[N+](C)C)cc-3sc3cc4c(cc23)C(C)(C)CCN4C)s1.[Cl-] [3-S—Cl] | 0.07 ± 0.01 | 38237 (±2684) | 86.81 (±0.89) % | 1.98 ± 0.06 | – | – | – | – | – |
| – | – | – | CCN(CC)C(=S)c1ccc(-c2c3ccc(=[N+](C)C)cc-3sc3cc4c(cc23)C(C)(C)CCN4C)s1.F[P-](F)(F)(F)(F)F [3-S—PF6] | 0.07 ± 0.01 | 45685 (±2726) | 84.91 (±1.57) % | 1.7 | inhibit ATPase activity | – | – | – | – |
| – | – | – | CCN(CC)C(=O)c1ccc(-c2c3ccc(=[N+](C)C)cc-3sc3cc4c(cc23)C(C)(C)CCN4C)s1.[Cl-] [4-S—Cl] | 0.09 ± 0.01 | 64332 | 92.08 (±0.49) % | 2.16 ± 0.02 | – | Significant cell death | – | not associated with any significant dark toxicity | – |
| – | – | – | CCN(CC)C(=O)c1ccc(-c2c3ccc(=[N+](C)C)cc-3sc3cc4c(cc23)C(C)(C)CCN4C)s1.F[P-](F)(F)(F)(F)F [4-S—PF6] | 0.09 ± 0.01 | 66500 | 92.20 (±0.55) % | 1.5 | stimulate ATPase activity | – | – | – | – |
| 0.13±0.03 and 0.13 ± 0.02 | – | – | CN(C)c1ccc2c(-c3ccc(C(=S)N4CCCCC4)s3)c3cc4c5c(c3[se+]c2c1)CCCN5CCC4.[Cl-] [5-Se—Cl] | 0.009 ± 0.002 | 12814 (±1256) | 85.03 (±2.90) % | 3.00 ± 0.02 | – | – | – | – | – |
| – | – | roughly 30 fold | CN(C)c1ccc2c(-c3ccc(C(=S)N4CCCCC4)s3)c3cc4c5c(c3[s+]c2c1)CCCN5CCC4.[Cl-] [5-S—Cl] | 0.30 ± 0.01 | 76661 (±5618) | 76.13 (±5.21) % | 2.97 ± 0.06 | – | – | – | – | – |
| – | – | – | CN(C)c1ccc2c(-c3ccc(C(=S)N4CCCCC4)s3)c3cc4c5c(c3[s+]c2c1)CCCN5CCC4.F[P-](F)(F)(F)(F)F [5-S—PF6] | 0.28 ± 0.01 | 80192 (±4122) | 76.52 (±4.79) % | 1.7 | inhibit ATPase activity | – | – | – | – |
| 0.23 ± 0.03 | 2.74 ± 0.02 | – | CN(C)c1ccc2c(-c3ccc(C(=O)N4CCCCC4)s3)c3cc4c5c(c3[se+]c2c1)CCCN5CCC4.[Cl-] [6-Se—Cl, 12-(Dimethylamino)-2,3,6,7-tetrahydro-9-(N-piperidyl-2-thienyl-5-carboxamido)-1H,5H-selenoxantheno[2,3,4-ij]quinolizin-14-ium hexafluorophosphate(V)] | 0.011 ± 0.002 | 14910 | 88.39 (±1.13) % | – | – | – | – | – | – |
| – | – | roughly 30 fold | CN(C)c1ccc2c(-c3ccc(C(=O)N4CCCCC4)s3)c3cc4c5c(c3[s+]c2c1)CCCN5CCC4.[Cl-] [6-S—Cl] | 0.36 ± 0.01 | 122500 | 82.10 (±1.17) % | 2.69 ± 0.02 | – | – | – | – | – |
| – | – | – | CN(C)c1ccc2c(-c3ccc(C(=O)N4CCCCC4)s3)c3cc4c5c(c3[s+]c2c1)CCCN5CCC4.F[P-](F)(F)(F)(F)F [6-S—PF6] | 0.36 ± 0.01 | 114190 | 82.54 (±1.17) % | 1.9 | stimulate ATPase activity | – | – | – | – |
| – | 3.00 ± 0.02 | – | CCN(CC)C(=S)c1ccc(-c2c3ccc(N(C)C)cc3[se+]c3c4c5c(cc23)CCCN5CCC4)s1.[Cl-] [7-Se—Cl, 12-(Dimethylamino)-2,3,6,7-tetrahydro-9-(5-(diethylcarbamothioyl)-thiophen-2-yl)-1H,5H-selenoxantheno[2,3,4-ij]quinolizin-14-ium chloriode] | – | 14935 (±1810) | 81.23 (±2.56) % | – | – | – | – | – | – |
| – | – | – | CCN(CC)C(=S)c1ccc(-c2c3ccc(N(C)C)cc3[s+]c3c4c5c(cc23)CCCN5CCC4)s1.[Cl-] [7-S—Cl] | – | 63950 (±5511) | 74.88 (±3.62) % | 2.55 ± 0.02 | – | – | – | – | – |
| – | – | – | CCN(CC)C(=S)c1ccc(-c2c3ccc(N(C)C)cc3[s+]c3c4c5c(cc23)CCCN5CCC4)s1.F[P-](F)(F)(F)(F)F [7-S—PF6] | – | 87456 (±10089) | 73.25 (±2.15) % | 2.7 | inhibit ATPase activity | – | – | – | – |
| – | – | – | CCN(CC)C(=O)c1ccc(-c2c3ccc(N(C)C)cc3[s+]c3c4c5c(cc23)CCCN5CCC4)s1.[Cl-] [8-S—Cl] | – | 114750 | 78.55 (±2.35) % | 2.65 ± 0.02 | – | – | – | not associated with any significant dark toxicity | – |
| – | – | – | CN(C)c1ccc2c(-c3ccccc3)c3ccc(=[N+](C)C)cc-3sc2c1.[Cl-] [TMR-S] | – | – | – | – | – | – | – | – | light fluence-dependent inhibition of cytochrome c oxidase activity |

| Structure (SMILES) | Φ(^1O2), MeOH [1] | log P (pH 7.4) | ΦF of sulfur analogue relative to selenium analogue [2] | ΦF, MeOH [2] | Uptake MFI (HUT-78 cells) | % Extrusion (HUT-78 cells) | log P [5] | effect on ATPase activity in P-gp (P-gp) | cell death after PD [3] | effect of PD on basal OCR [4] | dark toxicity (resting T cells) | cytochrome c oxidase activity in irradiated treated cells (cytochrome c oxidase) |
| --- | --- | --- | --- | --- | --- | --- | --- | --- | --- | --- | --- | --- |
| CN1CCC(C)(C)c2cc3c(-c4ccc(C(=S)N5CCCCC5)s4)c4ccc(=[N+](C)C)cc-4[se]c3cc21.[Cl-] [1-Se—Cl, N-methyl-N-(1,4,4-trimethyl-6-(5-(piperidine-1-carbonothioyl)thiophen-2-yl)-3,4-dihydro-1H-selenochromeno[3,2-g]quinolin-9(2H)-ylidene)methanaminium Chloride] | 0.44 ± 0.03 | – | – | 0.008 ± 0.001 | 6162 (±633) | 90.06 (±1.95) % | 1.61 ± 0.06 | – | – | – | – | – |
| CCN(CC)C(=O)c1ccc(-c2c3ccc(=[N+](C)C)cc-3[se]c3cc4c(cc23)C(C)(C)CCN4C)s1.[Cl-] [4-Se—Cl, N-(6-(5-(diethylcarbamoyl)thiophen-2-yl)-1,4,4-trimethyl-3,4-dihydro-1H-selenochromeno-[3,2-g]quinolin-9(2H)-ylidene)-N-methylmethanaminium Chloride] | 0.50 ± 0.03 | – | – | 0.009 ± 0.001 | 5209 | 92.24 (±0.69) % | 2.26 ± 0.04 | – | minimal cell death | did not significantly impede the basal OCR | – | – |
